ChEMBL document CHEMBL1201862, “PubChem BioAssay data set” (2004)
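How tested: cells in 96-well plates exposed to compound for 48 hours at five concentrations. GI50 is the concentration that inhibits growth by half.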 Active and inactive are the calls of the source. Cut-off read from the data, not from the text of the source: active = GI50 up to about 1.1 µM and inactive = higher.

Key:
Experiment in all cases: NCI anticancer screen, dose series, 48 h
786-0 = system: 786-0
SR = system: SR
SN12C = system: SN12C
SW-620 = system: SW-620
OVCAR-5 = system: OVCAR-5
SK-MEL-5 = system: SK-MEL-5
UACC-257 = system: UACC-257
M14 = system: M14
HOP-62 = system: HOP-62
MDA-N = system: MDA-N
SNB-75 = system: SNB-75
SK-MEL-28 = system: SK-MEL-28
MCF7 = system: MCF7
LOX IMVI = system: LOX IMVI
A498 = system: A498
OVCAR-3 = system: OVCAR-3
OVCAR-8 = system: OVCAR-8
EKVX = system: EKVX
MOLT-4 = system: MOLT-4
Malme-3M = system: Malme-3M

| Structure (SMILES) | GI50 (786-0) | GI50 (SR) | GI50 (SN12C) | GI50 (SW-620) | GI50 (OVCAR-5) | GI50 (SK-MEL-5) | GI50 (UACC-257) | GI50 (M14) | GI50 (HOP-62) | GI50 (MDA-N) | GI50 (SNB-75) | GI50 (SK-MEL-28) | GI50 (MCF7) | GI50 (LOX IMVI) | GI50 (A498) | GI50 (OVCAR-3) | GI50 (OVCAR-8) | GI50 (EKVX) | GI50 (MOLT-4) | GI50 (Malme-3M) |
| --- | --- | --- | --- | --- | --- | --- | --- | --- | --- | --- | --- | --- | --- | --- | --- | --- | --- | --- | --- | --- |
| O[C@]12C=C(c3nccc4c3[nH]c3ccccc34)[C@@H]3CCN(CCCC/C=C\CC1)C[C@@]31CC3/C=C\CCCCN3[C@H]12 (stereo not given in full) | 0.13 µM (active) | 0.311 µM (active) | 0.44 µM (active) | 0.306 µM (active) | 0.405 µM (active) | 0.187 µM (active) | 0.652 µM (active) | 0.371 µM (active) | 0.223 µM (active) | 0.367 µM (active) | 0.242 µM (active) | 0.615 µM (active) | 0.478 µM (active) | 0.275 µM (active) | 0.364 µM (active) | 0.302 µM (active) | 0.331 µM (active) | 0.441 µM (active) | 0.138 µM (active) | 0.509 µM (active) |
| C[n+]1ccn2c3nc4ccccc4nc3c([O-])c(C#N)c21 | > 48.5 µM (inactive) | > 100 µM (inactive) | > 100 µM (inactive) | > 100 µM (inactive) | > 10 µM (inactive) | > 4.65 µM (inactive) | > 100 µM (inactive) | > 100 µM (inactive) | > 10 µM (inactive) | > 100 µM (inactive) | > 100 µM (inactive) | > 100 µM (inactive) | 88.9 µM (inactive) | > 100 µM (inactive) | > 100 µM (inactive) | > 100 µM (inactive) | > 56.6 µM (inactive) | > 100 µM (inactive) | > 100 µM (inactive) | > 100 µM (inactive) |
